23 compounds from US8497283B2, “Autotaxin inhibitors” (Merck Patent GmbH, priority 2009, dated 2013) can be followed below.

The target of the first assay is T1, recombinant autotaxin (Homo sapiens, UniProt Q13822).
T1 construct: made in house; host or cells: Hi5 insect cells (baculovirus)
Description: Autotaxin assay (Amplex Red fluorescence, LPC substrate). To be noted: percent of uninhibited control (100%) at 1E−05 M compound. The assay is classed as biochemical. Here is the method: Autotaxin activity is measured indirectly by means of Amplex Red Reagent. In this course, Amplex Red is measured as fluorogenic indicator for generated H2O2. Autotaxin converts substrate lysophosphatidylcholine (LPC) to phosphocholine and lysophosphatidylic acid (LPA). After the conversion phosphocholine is reacted with alkaline phosphatase to obtain inorganic phosphate and choline. During the next step choline is oxidized with choline oxidase to yield betaine, whereby H2O2 is generated. H2O2 reacts with Amplex Red Reagent in the presence of peroxidase (Horseradish peroxidase) in an 1:1 stochiometry and yields highly fluorescent resorufin. The generated fluorescence is measured in a reaction-dependent kinetic mode in order to enable subtraction of fluorescence signals of possible other fluorescent compounds that are not part of the reaction from total measured fluorescence.
1.5 μl of a standard solution or of the compounds of the invention are dissolved in 20 mM Hepes pH 7.2 with maximally 7.7% DMSO in individual concentrations. The resulting solution is pre-incubated together with 10 μl (16 ng) of highly purified recombinant autotaxin in a black 384-hole microtiter plate for 30 min at 22° C.
Thereafter, the reaction is started through the addition of 5 μl L-a-lysophosphatidyl-choline (LPC), whereby the final concentration of LPC is 75 μM. The mixture is incubated for 90 min. at 37° C. After the incubation Amplex Red Reagent, peroxidase (Horseradish peroxidase) and choline oxidase are added. The fluorescence is immediately measured at a wavelength of 612 nm with an excitation wavelength of 485 nm in a “Tecan Ultra multimode” fluorescence reader. The activity of autotaxin is indirectly calculated via the amount of detected generated H2O2.
For IC50 analysis, ten serial 1:3 dilutions starting at 30 μM for each compound were run in duplicates.
IC50 values were calculated on normalized data. For normalization, control wells were added to each assay plate and the signal of uninhibited control wells was set to 100%, whereas the signal inhibited by 500 μM C14 LPA, (Avanti Polar Lipids, Cat#857120P) was set to 0%. Curves were fitted and IC50 values calculated by the following model using proprietory analysis software: Y=Bottom+(100−Bottom)/(1+10^((Log IC50−X)*HillSlope))
Where X is the logarithm of concentration. Y is the response;
Y starts at Bottom and goes to Top with a sigmoid shape.
Protein: Recombinant autotaxin (baculoviral Hi5 expression)
Substrate: L-a-lysophosphatidyl choline (chicken egg); Avanti Polar Lipids #830071P
Standard: C14 LPA, Avanti Polar Lipids, Cat#857120P
Detection Reagent Amplex Red Reagent; Invitrogen #A12222; dissolved in 1.923 ml of DMSO peroxidase Type VI-A (horseradish), Sigma #P6782; dissolved in 7.45 ml of test buffer, Choline Oxidase; Sigma #C5896; dissolved in 2.47 ml test buffer
Detection Reagent Mix: 1:100 dilution of Amplex Red Regent in test buffer
Test buffer: 200 mM Tris-HCl, Merck, Cat #1.08219, pH 7.9; 0.1% BSA, lipid free, Roche Cat#775835
As to `O=C(Nc1ccc(Cl)cc1)Nc1sc2c(c1C(=O)N1CCCC1)CCN(C(=O)c1ccc3[nH]nnc3c1)C2` [Compound 27, 1-[6-(1H-Benzotriazole-5-carbonyl)-3-(pyrrolidine-1-carbonyl)-4,5,6,7-tetrahydro-thieno[2,3-c]pyridin-2-yl]-3-(4-chloro-phenyl)-urea], the “% CTRL (1E−05)” value worked out at 52%.
On the same count and under the same terms, to `O=C(Nc1ccc(C(F)(F)F)cc1)Nc1nc2ccc(C(=O)Nc3ccc4[nH]c(=O)oc4c3)cc2s1` [Compound 30, 2-[3-(4-Trifluoromethyl-phenyl)-ureido]-benzothiazole-6-carboxylic acid (2-oxo-2,3-dihydro-benzooxazol-6-yl)-amide] belongs 93%; to `O=C(Nc1ccc(Cl)cc1)Nc1nc2ccc(C(=O)Nc3ccc4[nH]c(=O)oc4c3)cc2s1` [Compound 31, 2-[3-(4-Chloro-phenyl)-ureido]-benzothiazole-6-carboxylic acid (2-oxo-2,3-dihydro-benzooxazol-6-yl)-amide], 94%.
Same read-out and setting: to `O=C(Nc1ccc(C(F)(F)F)cc1)Nc1nc2ccc(C(=O)Nc3ccc4[nH]nnc4c3)cc2s1` [Compound 32, 2-[3-(4-Trifluoromethyl-phenyl)-ureido]-benzothiazole-6-carboxylic acid (1H-benzotriazol-5-yl)-amide] belongs 64%; to `O=C(NC(CO)Cc1ccc(Cl)cc1)c1[nH]nc2c1CCN(C(=O)c1ccc3[nH]nnc3c1)C2` (centres unmarked) [Compound 40, 6-(1H-Benzotriazole-5-carbonyl)-4,5,6,7-tetrahydro-2H-pyrazolo[3,4-c]pyridine-3-carboxylic acid [2-(4-chloro-phenyl)-1-hydroxymethyl-ethyl]-amide], 73%.
The same measure, in the same setting: to `COc1ccccc1CNC(=O)c1[nH]nc2c1CCN(C(=O)c1ccc3[nH]nnc3c1)C2` [Compound 41, 6-(1H-Benzotriazole-5-carbonyl)-4,5,6,7-tetrahydro-2H-pyrazolo[3,4-c]pyridine-3-carboxylic acid 2-methoxy-benzylamide] belongs 66%.

The same assay, now with this note: ten serial 1:3 dilutions starting at 30 μM, duplicates; 75 μM LPC; values given as upper bounds.
Turning to `NC(=O)c1c(NC(=O)Cc2ccc(Cl)cc2F)sc2c1CCN(C(=O)Cc1ccncc1)C2` [Compound 23, 2-[2-(4-Chloro-2-fluoro-phenyl)-acetylamino]-6-(2-pyridin-4-yl-acetyl)-4,5,6,7-tetrahydro-thieno[2,3-c]pyridine-3-carboxylic acid amide], the concentration for half-maximal inhibition (IC50) (commonly the concentration that inhibits the measured activity by half) was < 10 µM.
The same measure, in the same setting: to `NC(=O)c1c(NC(=O)Cc2ccc(Cl)cc2F)sc2c1CCN(C(=O)CCc1ccccn1)C2` [Compound 24, 2-[2-(4-Chloro-2-fluoro-phenyl)-acetylamino]-6-(3-pyridin-2-yl-propionyl)-4,5,6,7-tetrahydro-thieno[2,3-c]pyridine-3-carboxylic acid amide] belongs < 10 µM.
In the case of `COC(=O)c1c(NC(=O)Nc2ccc(Cl)cc2)sc2c1CCN(C(=O)c1ccc3[nH]nnc3c1)C2` [Compound 25, 6-(1H-Benzotriazole-5-carbonyl)-2-[3-(4-chloro-phenyl)-ureido]-4,5,6,7-tetrahydro-thieno[2,3-c]pyridine-3-carboxylic acid methyl ester], the half-maximal inhibitory concentration (IC50) was < 30 µM.
On the same count and under the same terms, to `COC(=O)c1c(NC(=O)Nc2ccc(Cl)cc2)sc2c1CCN(C(=O)c1ccc3[nH]c(=O)oc3c1)C2` [Compound 26, 2-[3-(4-Chloro-phenyl)-ureido]-6-(2-oxo-2,3-dihydro-benzooxazole-6-carbonyl)-4,5,6,7-tetrahydro-thieno[2,3-c]pyridine-3-carboxylic acid methyl ester] belongs < 10 µM; to `NC(=O)c1c(NC(=O)Nc2ccc(Cl)cc2)[nH]c2cc(C(=O)Nc3ccc4[nH]c(=O)oc4c3)ccc12` [Compound 28, 2-[3-(4-Chloro-phenyl)-ureido]-1H-indole-3,6-dicarboxylic acid 3-amide 6-[(2-oxo-2,3-dihydro-benzooxazol-6-yl)-amide]], < 30 µM.
Still for that read-out and setting: to `O=C(Cc1ccc(Cl)cc1F)Nc1nc2ccc(C(=O)Nc3ccc4[nH]c(=O)oc4c3)cc2s1` [Compound 29, 2-[2-(4-Chloro-2-fluoro-phenyl)-acetylamino]-benzothiazole-6-carboxylic acid (2-oxo-2,3-dihydro-benzooxazol-6-yl)-amide] belongs < 10 µM.
On the same count and under the same terms, to `O=C(NCc1cc(Cl)cc(Cl)c1)c1[nH]nc2c1CCN(C(=O)c1ccc3[nH]nnc3c1)C2` [Compound 33, 6-(1H-Benzotriazole-5-carbonyl)-4,5,6,7-tetrahydro-2H-pyrazolo[3,4-c]pyridine-3-carboxylic acid 3,5-dichloro-benzylamide] belongs < 10 µM; to `O=C(NCc1ccc(Cl)cc1)c1[nH]nc2c1CCN(C(=O)c1ccc3[nH]nnc3c1)C2` [Compound 34, 6-(1H-Benzotriazole-5-carbonyl)-4,5,6,7-tetrahydro-2H-pyrazolo[3,4-c]pyridine-3-carboxylic acid 4-chloro-benzylamide], < 10 µM; to `CC(CNC(=O)c1[nH]nc2c1CCN(C(=O)c1ccc3[nH]nnc3c1)C2)c1ccc(Cl)cc1` (centres unmarked) [Compound 35, 6-(1H-Benzotriazole-5-carbonyl)-4,5,6,7-tetrahydro-2H-pyrazolo[3,4-c]pyridine-3-carboxylic acid [2-(4-chloro-phenyl)-propyl]-amide], < 10 µM.
Turning to `O=C(NCc1cc(C(F)(F)F)ccc1F)c1[nH]nc2c1CCN(C(=O)c1ccc3[nH]nnc3c1)C2` [Compound 36, 6-(1H-Benzotriazole-5-carbonyl)-4,5,6,7-tetrahydro-2H-pyrazolo[3,4-c]pyridine-3-carboxylic acid 2-fluoro-5-trifluoromethyl-benzylamide], the IC50 is < 30 µM.
Same read-out and setting: to `O=C(NCCc1ccc(Cl)c(Cl)c1)c1[nH]nc2c1CCN(C(=O)c1ccc3[nH]nnc3c1)C2` [Compound 37, 6-(1H-Benzotriazole-5-carbonyl)-4,5,6,7-tetrahydro-2H-pyrazolo[3,4-c]pyridine-3-carboxylic acid [2-(3,4-dichloro-phenyl)-ethyl]-amide] belongs < 10 µM; to `O=C(NCc1cc(Cl)ccc1Cl)c1[nH]nc2c1CCN(C(=O)c1ccc3[nH]nnc3c1)C2` [Compound 38, 6-(1H-Benzotriazole-5-carbonyl)-4,5,6,7-tetrahydro-2H-pyrazolo[3,4-c]pyridine-3-carboxylic acid 2,5-dichloro-benzylamide], < 10 µM; to `O=C(NCCc1ccc(Cl)cc1)c1[nH]nc2c1CCN(C(=O)c1ccc3[nH]nnc3c1)C2` [Compound 39, 6-(1H-Benzotriazole-5-carbonyl)-4,5,6,7-tetrahydro-2H-pyrazolo[3,4-c]pyridine-3-carboxylic acid [2-(4-chloro-phenyl)-ethyl]-amide], < 1 µM.
For the compound `O=C(NCCc1cccc(Cl)c1)c1[nH]nc2c1CCN(C(=O)c1ccc3[nH]nnc3c1)C2` [Compound 42, 6-(1H-Benzotriazole-5-carbonyl)-4,5,6,7-tetrahydro-2H-pyrazolo[3,4-c]pyridine-3-carboxylic acid [2-(3-chloro-phenyl)-ethyl]-amide], the IC50 is < 30 µM.
Same read-out and setting: to `O=C(NCCc1ccc([N+](=O)[O-])cc1)c1[nH]nc2c1CCN(C(=O)c1ccc3[nH]nnc3c1)C2` [Compound 43, 6-(1H-Benzotriazole-5-carbonyl)-4,5,6,7-tetrahydro-2H-pyrazolo[3,4-c]pyridine-3-carboxylic acid [2-(4-nitro-phenyl)-ethyl]-amide] belongs < 10 µM.
Same read-out and setting: to `O=C(NCCc1ccc(Br)cc1)c1[nH]nc2c1CCN(C(=O)c1ccc3[nH]nnc3c1)C2` [Compound 44, 6-(1H-Benzotriazole-5-carbonyl)-4,5,6,7-tetrahydro-2H-pyrazolo[3,4-c]pyridine-3-carboxylic acid [2-(4-bromo-phenyl)-ethyl]-amide] belongs < 10 µM; to `COc1ccc(Cl)cc1CNC(=O)c1[nH]nc2c1CCN(C(=O)c1ccc3[nH]nnc3c1)C2` [Compound 45, 6-(1H-Benzotriazole-5-carbonyl)-4,5,6,7-tetrahydro-2H-pyrazolo[3,4-c]pyridine-3-carboxylic acid 5-chloro-2-methoxy-benzylamide], < 10 µM.
